Assay results as given in US20130039929A1, “METHOD TREATING BREAST CANCER” (priority 2010, published 2013).

Test system: HIF-1 dependent transcription
Assay: 5×HRE luciferase reporter assay of hypoxia (CoCl2)-induced transcription in MDAMB-231 cells
Format: cell-based
Conditions: CoCl2 along with thalidomide 10 μM
Source text: FIGS. 5A-5E. FIG. 5A. Schematic map of luciferase reporter used; HRE: hypoxia responsive element. FIG. 5B. Assay of hypoxia-induced luciferase activity in the presence of each indicated siRNA transfection. **p<0.001, * p<0.01 versus control/CoCl2 one-way ANOVA, Bonferroni post test. FIG. 5C. Western blot showing the efficiency of knockdown for each βarr isoform. FIG. 5D. Assay of hypoxia induced luciferase reporter activity in Mouse Embryonic Fibroblasts (MEFs) that are null for both βarr1 and 2 under control and βarr1 replete conditions. *** p<0.001, between the two cobalt treated samples, Bonferroni post test, one-way ANOVA, n=3. FIG. 5E. Western blot of lysates showing expression of transfected βarr1.
FIGS. 7A-7D. FIG. 7A. […] FIG. 7B. […] FIG. 7C. […] FIG. 7D.
To test if the above β-arrestin1-HIF-1α interaction has functional consequences, an analysis was made of the effect of β-arrestin1 expression on HIF-1-mediated transcription during hypoxia. One of the most characterized HIF-regulated genes is the potent endothelial mitogen, VEGF-A, which regulates endothelial cell proliferation and blood vessel formation in both normal and cancerous tissues (Liu et al, Circ. Res. 77:638-643 (1995)). The VEGF-A gene contains a HRE in its 5′ UTR (untranslated region) and hypoxia induces a rapid and sustained increase in VEGF-A mRNA levels. […]

O=C1CCC(N2C(=O)c3ccccc3C2=O)C(=O)N1 (stereo not shown) [thalidomide]
HIF-1 dependent transcriptional response (5×HRE luciferase reporter activity): complete inhibition
